Laboratory results published in paper PMC2362229 (British Journal of Cancer, 1999).
pIC50, pKi: −log10 of the molar value.

Columns and labels:
[1] = target: T1, recombinant rat Mdr1b P-gp (Rattus norvegicus, UniProt P43245); test: Photoaffinity labelling with [3H]azidopine, membranes of recombinant mdr1b-BV-infected Sf9 cells; assay type: binding; conditions: […] GG918
T1 construct: made in house; host or cells: Sf9 insect cells, recombinant baculovirus (mdr1b-BV)

[2] = target: T2, rat P-gp (145 kDa protein) (Rattus norvegicus, UniProt P43245); test: Photoaffinity labelling with [3H]azidopine, rat canalicular membranes; assay type: binding
T2 construct: Membrane fractions enriched in the hepatocyte canalicular membrane domain were prepared and characterized from rat and human liver; from tissue; host or cells: rat liver canalicular membrane vesicles
T2 sequence (P43245 whole entry, the tested form may be a part): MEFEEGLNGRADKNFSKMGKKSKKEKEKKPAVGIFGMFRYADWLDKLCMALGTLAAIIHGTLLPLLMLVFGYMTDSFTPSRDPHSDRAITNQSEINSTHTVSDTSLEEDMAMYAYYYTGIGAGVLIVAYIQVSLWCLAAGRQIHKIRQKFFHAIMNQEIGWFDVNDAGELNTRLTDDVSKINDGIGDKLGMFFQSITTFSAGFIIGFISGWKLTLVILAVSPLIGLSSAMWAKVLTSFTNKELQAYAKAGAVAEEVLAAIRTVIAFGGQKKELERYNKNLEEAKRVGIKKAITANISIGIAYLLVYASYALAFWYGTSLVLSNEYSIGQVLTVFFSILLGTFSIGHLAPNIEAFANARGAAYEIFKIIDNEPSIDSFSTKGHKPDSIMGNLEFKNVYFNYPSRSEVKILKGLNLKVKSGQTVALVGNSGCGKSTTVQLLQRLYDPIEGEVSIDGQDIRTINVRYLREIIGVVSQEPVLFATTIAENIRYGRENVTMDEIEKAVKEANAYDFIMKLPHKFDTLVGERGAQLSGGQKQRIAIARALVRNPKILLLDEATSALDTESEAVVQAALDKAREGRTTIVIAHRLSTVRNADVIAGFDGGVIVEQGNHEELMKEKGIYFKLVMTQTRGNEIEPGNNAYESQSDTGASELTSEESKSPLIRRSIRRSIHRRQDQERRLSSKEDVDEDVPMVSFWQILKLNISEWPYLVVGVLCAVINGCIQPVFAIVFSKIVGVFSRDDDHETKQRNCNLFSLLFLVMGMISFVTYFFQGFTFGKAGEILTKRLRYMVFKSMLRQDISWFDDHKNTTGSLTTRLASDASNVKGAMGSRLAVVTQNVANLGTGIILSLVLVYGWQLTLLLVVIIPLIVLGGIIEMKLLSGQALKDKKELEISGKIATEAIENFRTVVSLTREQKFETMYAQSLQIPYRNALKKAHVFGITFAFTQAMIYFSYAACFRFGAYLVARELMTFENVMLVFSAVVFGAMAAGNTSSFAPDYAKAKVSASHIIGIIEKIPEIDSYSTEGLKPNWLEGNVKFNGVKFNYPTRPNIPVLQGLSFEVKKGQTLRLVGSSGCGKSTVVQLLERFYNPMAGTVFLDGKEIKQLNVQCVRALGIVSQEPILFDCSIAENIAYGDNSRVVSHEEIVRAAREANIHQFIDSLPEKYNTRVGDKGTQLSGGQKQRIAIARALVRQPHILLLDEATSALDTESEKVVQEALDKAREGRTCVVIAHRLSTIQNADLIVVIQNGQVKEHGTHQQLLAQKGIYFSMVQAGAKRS

[3] = Bile flow in bile duct-cannulated rats; assay type: in vivo, rat; conditions: GG918 4 mol kg1 body weight i.v.
Mdr1b P-gp [4] = target: T3, Mdr1b P-gp (Rattus norvegicus, UniProt P43245); test: ATP-dependent [3H]daunorubicin transport into rat hepatocyte canalicular membrane vesicles
T3 sequence (P43245 whole entry): as the sequence (P43245 whole entry, the tested form may be a part) above

[5] = target: T4, conjugate export pump MRP2 (Rattus norvegicus, UniProt Q63120); test: In vivo elimination of N-[3H]acetyl-LTE4 into bile; conditions: GG918 4 mol kg1
T4 construct: Membrane fractions enriched in the hepatocyte canalicular membrane domain were prepared and characterized from rat and human liver; from tissue; host or cells: liver of male Wistar rats: canalicular membrane vesicles (A7) or the liver in vivo (A12)

Mdr1 P-gp [6] = target: T5, Mdr1 P-gp (Rattus norvegicus, UniProt P43245); test: ATP-dependent N-pentyl-[3H]quinidinium transport in rat hepatocyte canalicular membrane vesicles; assay type: biochemical
T5 construct: Membrane fractions enriched in the hepatocyte canalicular membrane domain were prepared and characterized from rat and human liver; from tissue; host or cells: rat liver canalicular membrane vesicles
T5 sequence (P43245 whole entry, the tested form may be a part): as above

[7] = target: T6, bile salt export pump (BSEP) (Rattus norvegicus, UniProt O70127); test: ATP-dependent [3H]taurocholate transport in rat hepatocyte canalicular membrane vesicles; assay type: biochemical; conditions: TC 5 M; 0.5% fetal calf serum; read-out: inhibition by 50% of ATP-dependent BSEP, [3H]taurocholate as substrate (IC50)
T6 construct: Membrane fractions enriched in the hepatocyte canalicular membrane domain were prepared and characterized from rat and human liver; from tissue; host or cells: liver of male Wistar rats: canalicular membrane vesicles (A8) or the liver in vivo (A13)
T6 sequence (O70127 1-1321): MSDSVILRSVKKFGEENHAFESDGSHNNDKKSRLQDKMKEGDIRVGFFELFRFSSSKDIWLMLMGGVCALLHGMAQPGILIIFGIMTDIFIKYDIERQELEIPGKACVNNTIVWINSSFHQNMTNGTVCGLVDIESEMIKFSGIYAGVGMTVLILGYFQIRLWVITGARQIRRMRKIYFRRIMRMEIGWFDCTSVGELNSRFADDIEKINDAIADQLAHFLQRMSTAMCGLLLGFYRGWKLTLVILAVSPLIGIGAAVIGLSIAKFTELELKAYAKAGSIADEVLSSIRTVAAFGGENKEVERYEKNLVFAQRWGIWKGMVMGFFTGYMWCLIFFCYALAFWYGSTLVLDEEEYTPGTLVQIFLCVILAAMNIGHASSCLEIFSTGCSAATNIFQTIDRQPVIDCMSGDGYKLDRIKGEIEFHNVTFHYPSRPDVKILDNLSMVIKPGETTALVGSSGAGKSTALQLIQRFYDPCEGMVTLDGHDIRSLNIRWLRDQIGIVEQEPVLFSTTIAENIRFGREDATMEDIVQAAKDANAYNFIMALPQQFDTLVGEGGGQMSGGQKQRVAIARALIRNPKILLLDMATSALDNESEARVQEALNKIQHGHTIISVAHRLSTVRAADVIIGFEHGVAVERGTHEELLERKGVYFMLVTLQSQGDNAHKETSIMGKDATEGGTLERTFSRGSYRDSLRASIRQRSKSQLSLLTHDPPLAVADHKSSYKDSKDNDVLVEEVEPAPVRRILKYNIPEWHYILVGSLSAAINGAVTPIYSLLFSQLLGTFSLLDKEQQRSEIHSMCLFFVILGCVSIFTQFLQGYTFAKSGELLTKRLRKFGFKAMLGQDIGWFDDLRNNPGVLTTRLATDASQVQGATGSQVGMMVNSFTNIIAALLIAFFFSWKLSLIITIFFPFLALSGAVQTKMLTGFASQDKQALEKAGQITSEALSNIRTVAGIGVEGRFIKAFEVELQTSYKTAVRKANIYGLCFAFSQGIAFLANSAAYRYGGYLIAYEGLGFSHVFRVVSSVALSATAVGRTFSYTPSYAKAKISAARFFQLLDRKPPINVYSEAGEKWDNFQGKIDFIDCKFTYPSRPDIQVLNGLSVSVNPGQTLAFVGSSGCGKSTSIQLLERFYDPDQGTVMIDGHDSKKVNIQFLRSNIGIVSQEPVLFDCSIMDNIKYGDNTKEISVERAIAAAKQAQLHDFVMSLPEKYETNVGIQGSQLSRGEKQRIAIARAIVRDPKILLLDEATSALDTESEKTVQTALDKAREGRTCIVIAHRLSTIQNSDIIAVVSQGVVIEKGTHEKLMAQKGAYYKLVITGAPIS

[8] = target: T4, conjugate export pump MRP2; test: ATP-dependent [3H]LTC4 transport in rat hepatocyte canalicular membrane vesicles; assay type: biochemical; conditions: LTC4 50 nM; not significantly inhibited up to 20 µM
MDR1 P-glycoprotein = test: in vitro; conditions: Wistar (rat), human
Mdr1 P-gp [9] = target: T5, Mdr1 P-gp; test: ATP-dependent [14C]doxorubicin transport in rat hepatocyte canalicular membrane vesicles; assay type: biochemical; conditions: read-out: half-maximal inhibition of [14C]doxorubicin transport (IC50)
Mdr1b P-gp [10] = target: T3, Mdr1b P-gp; test: In vivo elimination of [14C]doxorubicin into bile; set-up: from tissue; host or cells: liver of male Wistar rats: the liver in the living animal (A10, A11); conditions: GG918 14 mol kg1; 60 min
BSEP = target: T7, BSEP (Rattus norvegicus, UniProt O70127); test: In vivo elimination of [3H]taurocholate into bile; conditions: GG918 4 mol kg1 body weight
T7 construct: Membrane fractions enriched in the hepatocyte canalicular membrane domain were prepared and characterized from rat and human liver; from tissue; host or cells: liver of male Wistar rats: canalicular membrane vesicles (A8) or the liver in vivo (A13)
T7 sequence (O70127 1-1321): T6 sequence (O70127 1-1321)

T1 sequence (P43245 whole entry): as the sequence (P43245 whole entry, the tested form may be a part) above

| reduction of [3H]azidopine incorporation into the Mdr1b protein [1] [%] | reduction of [3H]azidopine labelling of rat P-gp ([2]; 40 µM GG918) [%] | reduction of [3H]azidopine labelling of rat P-gp ([2]; 10 M GG918) [%] | concentration for potent competition with [3H]azidopine photoaffinity labelling versus concentration for potent inhibition of substrate transport by Mdr1b P-gp ([2]; fold higher) | pKi (Mdr1b P-gp [4]) | pIC50 (Mdr1b P-gp [4]; IC50 Dau (Figure 7), DAU 20 M, Figure 7 inset) | pIC50 (Mdr1b P-gp [4]; half-maximal inhibition of [3H]daunorubicin transport, [3H]daunorubicin 20 M, 0.5% fetal calf serum) | manner of inhibition of [3H]daunorubicin transport (Mdr1b P-gp [4]; rat canalicular inside-out vesicles, 30 nM GG918) | inhibition of N-[3H]acetyl-LTE4 secretion [5] | suppression of ATP-dependent transport of N-pentyl-[3H]quinidinium (Mdr1 P-gp [6]; 10 nM GG918) [%] | suppression of ATP-dependent transport of N-pentyl-[3H]quinidinium (Mdr1 P-gp [6]; 100 nM GG918) [%] | pIC50 (Mdr1 P-gp [6]; rat hepatocyte canalicular membranes, substrate 1 M, read-out: half-maximal inhibition of N-pentyl-[3H]quinidinium transport (IC50)) | pIC50 [8] | pIC50 (MDR1 P-glycoprotein) | pIC50 (Mdr1 P-gp [9]) | [14C]doxorubicin elimination suppressed to (% of untreated) (Mdr1b P-gp [10]) [%] | Vmax of ATP-dependent daunorubicin transport (Mdr1b P-gp [4]; Lineweaver-Burk plots, rat canalicular vesicles) [pmol mg1 min1] | SMILES | bile flow [3] | pIC50 [7] | effect on biliary excretion of [3H]taurocholate (BSEP) |
| --- | --- | --- | --- | --- | --- | --- | --- | --- | --- | --- | --- | --- | --- | --- | --- | --- | --- | --- | --- | --- |
| 80 | 78 | 38 | at least 100 fold | 7.46 | 7.70 | ~7.70 | competitive | No significant inhibition | 42 | 98 | 8.10 | < 4.70 | 7.10 to 8.10 | 7.10 | 27 |  | COc1cc2c(cc1OC)CN(CCc1ccc(NC(=O)c3cccc4c(=O)c5cccc(OC)c5[nH]c34)cc1)CC2 [GG918, N-{4-[2-(1,2,3,4-tetrahydro-6,7-dimethoxy-2-isoquinolinyl)-ethyl]-phenyl}-9,10-dihydro-5-methoxy-9-oxo-4-acridine carboxamide] | not affected | ~5.52 | did not affect |
|  |  |  |  |  |  |  |  |  |  |  |  |  |  |  |  | 721 | COc1cccc2c1C(=O)c1c(O)c3c(c(O)c1C2=O)C[C@@](O)(C(C)=O)C[C@@H]3O[C@H]1C[C@H](N)[C@H](O)[C@H](C)O1 [daunorubicin] |  |  |  |
